The values below come from paper PMC10127606, “Salmonella Invasion Is Controlled by Competition among Intestinal Chemical Signals” (mBio, 2023).

Series [1] concerns the target T1, HilD (Salmonella typhimurium, UniProt P0CL08).
T1 sequence (P0CL08 1-309): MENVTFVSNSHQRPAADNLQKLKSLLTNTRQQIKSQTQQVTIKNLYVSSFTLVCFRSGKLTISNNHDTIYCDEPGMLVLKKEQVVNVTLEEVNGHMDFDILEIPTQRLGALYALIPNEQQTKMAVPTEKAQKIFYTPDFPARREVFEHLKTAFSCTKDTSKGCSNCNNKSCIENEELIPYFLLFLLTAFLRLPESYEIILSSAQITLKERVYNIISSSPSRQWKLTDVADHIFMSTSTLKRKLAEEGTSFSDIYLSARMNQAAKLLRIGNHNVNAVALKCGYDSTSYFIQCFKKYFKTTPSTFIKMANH
Put plainly: biochemical. It is filed as binding. Details: made in house; host or cells: E. coli BL21(DE3), pET15b. On the procedure: (§1) Assays were performed as previously described in detail in Chowdhury et al. ([15], [16]). Briefly, 96-well polystyrene plates coated with various concentrations of fatty acids in coating buffer (0.05 M sodium carbonate-bicarbonate, pH 9.3) were incubated overnight at 4°C. The wells were washed three times with PBS, followed by the addition of 200 μL blocking buffer (1% Ficoll 400 in PBS). […] The wells were washed, incubated with a 1:1,000 dilution of anti-His tag antibody, and incubated at room temperature for an hour. After washing, the wells were incubated with a 1:5,000 dilution of anti-mouse secondary antibody for an hour. Finally, the wells were washed three times with PBS-T (PBS plus 0.1% Tween 20), and 100 μL OPD (o-phenylenediamine) substrate was added. After color development, the reaction was ended with 1 N sulfuric acid and read spectrophotometrically at 490 nm. Data were analyzed in GraphPad Prism. Nonlinear regression was plotted, and one-site total binding was performed to calculate Kd values.
hilD alleles were cloned into pET15b(+), expressed, and purified as described in detail previously ([15]). Briefly, the pET15b-6XHis-hilD or pET15b-6XHis-hilD^Q290A or pET15b-6XHis-hilD^K293A plasmid was transformed into E. coli BL21(DE3) for expression. Transformants were induced with 5 mM IPTG (isopropyl β-D-1-thiogalactopyranoside) for 4 h. Cultures were centrifuged, lysed, treated with TALON beads, and applied to protein purification columns. Bound protein was eluted and confirmed by SDS-PAGE. Following confirmation, eluted samples were dialyzed overnight. The final protein concentration and quality after dialysis were assessed by Bradford estimation and SDS-PAGE.

The test system of series [2] is invasion gene sipC expression. Put plainly: sipC::lacZY reporter β-galactosidase assay. The format is cell-based. To be noted: no formic acid preincubation; 10 μM c2-HDA, 40 μM oleic acid. Here is the method: The β-galactosidase assay was performed using the method of Miller, as previously described in detail ([39]). Miller units were calculated using the following equation: Miller units = (OD420 × 1,000)/(OD600 × t × v), where t is the time (minutes) the reaction was allowed to continue before adding the stop solution, v is the volume of culture (mL) assayed, and OD420 and OD600 are the densities of the cultures at 420 and 600 nm, respectively. All reactions were performed in quadruplicates. Data were analyzed in Excel and plotted in GraphPad Prism.

Series [3] deals with T2, HilD-hilA complex (Salmonella typhimurium, UniProt P0CL08).
T2 construct: made in house; host or cells: E. coli BL21(DE3), pET15b
T2 sequence (P0CL08 1-309): T1 sequence (P0CL08 1-309)
Put plainly: EMSA of HilD binding to hilA promoter DNA. Particulars: c2-HDA 20 μM, t2-HDA 40 μM, oleic acid 50 μM; no formic acid.
Procedure: Assays were performed as previously described ([15], [16]). […] Various concentrations of the fatty acids (c2-HDA, 20 μM; t2-HDA, 40 μM; or oleic acid, 50 μM) or control solvents were added, and the reaction was incubated at room temperature for 1 h. Dye solution (10 mM Tris, 1 mM EDTA, 50% vol/vol glycerol, 0.001% wt/vol bromophenol blue) was added to a final concentration of 1×, and samples were separated on 7% acrylamide gels. DNA was stained using SYBR Safe and visualized in a Bio-Rad GelDoc imaging system.

Series [4] has as its target T3, HilD^Q290A (Salmonella typhimurium, UniProt P0CL08, Q290A).
T3 construct: made in house; host or cells: E. coli BL21(DE3), pET15b
T3 sequence (P0CL08 1-309 Q290A): T1 sequence (P0CL08 1-309) with Q290A
The experiment in a line: ELISA binding of fatty acids to mutant HilD^Q290A. Here is the method: as §1
(§2) hilD alleles were cloned into pET15b(+), expressed, and purified as described in detail previously ([15]). Briefly, the pET15b-6XHis-hilD or pET15b-6XHis-hilD^Q290A or pET15b-6XHis-hilD^K293A plasmid was transformed into E. coli BL21(DE3) for expression. […] The final protein concentration and quality after dialysis were assessed by Bradford estimation and SDS-PAGE.
(In an ELISA, binding on a coated surface is turned into a signal by an enzyme label.)

Series [5] deals with invasion gene hilA expression. The experiment in a line: hilA-luxCDABE transcriptional reporter luciferase assay. It is filed as cell-based. To be noted: no formic acid preincubation; 500 nM c2-HDA, 40 μM oleic acid, 10 mM propionic acid. On the procedure: Salmonella strains carrying luxCDABE reporter plasmids were grown overnight in 5 mL LB broth with appropriate antibiotics. These were subcultured (1:100) in M9 minimal medium with 0.2% glucose and antibiotics for 16 h. […] These were incubated for 3 h at 37°C in an incubator without aeration. Dimethyl sulfoxide (DMSO) or different concentrations of fatty acids were added to the reaction, and replicate aliquots were introduced into the BioTek Synergy H1 microplate reader. Luminescence and OD600 were recorded every half-hour for 24 h. Data were analyzed in GraphPad Prism. For every treatment, the area under the curve (AUC) was calculated. DMSO was normalized to 100%, and other reactions were calculated accordingly.

Series [6] has as its target T4, HilD^K293A (Salmonella typhimurium, UniProt P0CL08, K293A).
T4 construct: made in house; host or cells: E. coli BL21(DE3), pET15b
T4 sequence (P0CL08 1-309 K293A): T1 sequence (P0CL08 1-309) with K293A
The experiment in a line: ELISA binding of fatty acids to mutant HilD^K293A. On the procedure:
as §1, §2

The target of series [7] is T1, HilD. The format is cell-based. Details: The stability of HilD in Salmonella carrying a chromosomal tetRA-hilD-3×FLAG tag; expressed in transfected cells; host or cells: Salmonella Typhimurium strain CA2446 (tetRA-hilD-3XFLAG attλ:pDX1::hilA'-lacZ). On the procedure:
Assays were performed as previously described ([22]). Salmonella strains carrying a chromosomal tetracycline-inducible hilD with a C-terminal 3×FLAG tag and a hilA::lacZY fusion (for invasion gene expression assessment) were grown overnight in LB and then diluted 1:100 into LB buffered with 100 mM MOPS (pH 6.7) with 2.5 μg/mL tetracycline. […] After 1 h of incubation at 37°C with aeration, samples were collected to measure hilA::lacZY expression in a β-galactosidase assay. Individual cultures were then equilibrated to an OD600 of 1. New protein production was halted by adding an antibiotic combination (100 μg/mL rifampin, 200 μg/mL streptomycin, and 50 μg/mL spectinomycin). These cultures were incubated at 37°C with aeration, and 200-μL aliquots were collected every 30 min for 4 h. Samples were lysed in 5× Laemmli buffer, boiled, and immunoblotted with an anti-FLAG antibody to monitor HilD levels.

Where [8] appears, read: HilD preincubated with formic acid (500 μM), read-out: Kd.
Where [9] appears, read: HilD without formic acid preincubation, read-out: Kd.
Setting [10] is: Kd, HilD preincubated with formic acid (500 μM).
Setting [11] is: Kd, HilD without formic acid preincubation.

Each structure is given as a SMILES string. Changes are numbered by the printed parent chain. Read-outs that look alike come from different tables or passages of the source.

In general, Kd refers to the equilibrium constant for the complex coming apart. With `CCCCCCCCCCCCCCCCC/C=C\C(=O)O` [c2-EA], the Kd in series [1] (setting [8]) turned out to be 381 µM; in series [1] (setting [9]), 96.6 µM.

Take `CCCCCCCCCCCCC/C=C\C(=O)O` [c2-HDA, cis-2-hexadecenoic acid]: in series [2], the “effect on sipC expression” value is listed as “repressed”. Also, the Kd was 82 µM in series [1] (setting [10]), 5.19 µM in series [1] (setting [11]) and 12.6 µM in series [4]. In series [3], the “effect on HilD-hilA complex” value is “disrupted the HilD-hilA complex”. Besides, in series [5], the “effect on hilA expression” value is reported as “drastically reduced hilA expression”.

Turning to `CCCCCCCC/C=C\CCCCCCCC(=O)O` [oleic acid], the “effect on sipC expression” value in series [2] is listed as “repressed”. Moreover, the figures for the dissociation constant (Kd) in series [6], in series [1] (setting [10]) and in series [1] (setting [11]) were 119 µM, 1370 µM and 136 µM, respectively. The “effect on HilD-hilA complex” value in series [3] is “disrupted the HilD-hilA complex”. The “effect on hilA expression” value in series [5] is listed as “severely repressed”.

Turning to `CCC(=O)O` [propionic acid], in series [5], the “effect on hilA expression” value is “severely repressed”.

On to `CCCCCCCCCCCCC/C=C/C(=O)O` [t2-HDA], for which the HilD half-life is listed as ~ 127 min in series [7] (fatty acid 20 μM after preincubation with formic acid (10 mM)) and ~ 28 min in series [7] (fatty acid 20 μM, no formic acid preincubation (DMSO control ~227 min)). Further, the Kd amounted to 177 µM in series [1] (setting [8]) and 15.8 µM in series [1] (setting [9]). The “effect on HilD-hilA complex” value in series [3] is listed as “disrupted the HilD-hilA complex”.
